# Where “and” joins values, the source holds several entries; their conditions need not be identical. Identical values can stand only once. Toxic doses and inconclusive results are not listed.
# Tested on: BDF1 mice, P388 leukemia ip, median survival T/C
# Assay: NCI In Vivo Anticancer Drug Screen. Data for tumor model P388 Leukemia (intraperitoneal) in B6D2F1 (BDF1) mice
# Conditions: endpoint: median survival time, higher = longer survival
# Procedure, shortened: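 Vehicle-dosed animals serve as the reference; survival of compound-dosed, tumour-implanted mice is divided by it.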
# [1] = dose: 100.0 mg/kg/injection, schedule: Q04DX003 (ip), vehicle: other
# [2] = dose: 50.0 mg/kg/injection, schedule: Q01DX009 (ip), vehicle: saline with Tween-80
# [3] = dose: 100.0 mg/kg/injection, schedule: Q01DX009 (ip), vehicle: saline with Tween-80
smiles,measurement,setting,value
O=[N+]([O-])CC(OCCO)C(Cl)(Cl)Cl (stereo unspecified),T/C,"dose: 3.12 mg/kg/injection, schedule: Q04DX003 (ip), vehicle: saline",95 % of control
same,T/C,"dose: 6.25 mg/kg/injection, schedule: Q01DX009 (ip), vehicle: acetone",110 % of control
same,T/C,"dose: 6.25 mg/kg/injection, schedule: Q04DX003 (ip), vehicle: saline",100 % of control
same,T/C,"dose: 12.5 mg/kg/injection, schedule: Q01DX009 (ip), vehicle: acetone",89 % of control
same,T/C,"dose: 12.5 mg/kg/injection, schedule: Q04DX003 (ip), vehicle: saline",95 % of control
same,T/C,"dose: 18.0 mg/kg/injection, schedule: Q04DX003 (ip), vehicle: saline with Tween-80",118 % of control
same,T/C,"dose: 28.0 mg/kg/injection, schedule: Q04DX003 (ip), vehicle: saline with Tween-80",90 % of control
same,T/C,"dose: 40.0 mg/kg/injection, schedule: Q04DX003 (ip), vehicle: saline with Tween-80",86 % of control
NC(N)=N/N=C(/c1ccccc1)c1ccc(F)cc1,T/C,"dose: 1.2 mg/kg/injection, schedule: Q01DX009 (ip), vehicle: Klucel (hydroxypropylcellulose) (HPC)",115 % of control
same,T/C,"dose: 5.0 mg/kg/injection, schedule: Q01DX009 (ip), vehicle: Klucel (hydroxypropylcellulose) (HPC)",104 % of control and 105 % of control
same,T/C,"dose: 5.0 mg/kg/injection, schedule: Q01DX009 (ip), vehicle: saline",95 % of control
same,T/C,"dose: 10.0 mg/kg/injection, schedule: Q01DX009 (ip), vehicle: Klucel (hydroxypropylcellulose) (HPC)",100 % of control and 109 % of control
same,T/C,"dose: 10.0 mg/kg/injection, schedule: Q01DX009 (ip), vehicle: saline",100 % of control
same,T/C,"dose: 20.0 mg/kg/injection, schedule: Q01DX009 (ip), vehicle: saline",112 % of control
O=C(/C=C/c1cccc(Br)c1)c1ccc(Cl)cc1,T/C,"dose: 50.0 mg/kg/injection, schedule: Q01DX009 (ip), vehicle: other",120 % of control
same,T/C,"dose: 50.0 mg/kg/injection, schedule: Q04DX003 (ip), vehicle: other",100 % of control
same,T/C,"dose: 100.0 mg/kg/injection, schedule: Q01DX009 (ip), vehicle: other",120 % of control
same,T/C,[1],100 % of control
same,T/C,"dose: 132.0 mg/kg/injection, schedule: Q01DX009 (ip), vehicle: other",100 % of control
same,T/C,"dose: 200.0 mg/kg/injection, schedule: Q01DX009 (ip), vehicle: other",104 % of control
same,T/C,"dose: 200.0 mg/kg/injection, schedule: Q04DX003 (ip), vehicle: other",90 % of control
same,T/C,"dose: 300.0 mg/kg/injection, schedule: Q01DX009 (ip), vehicle: other",104 % of control
COC(=O)C1=C(C(=O)OC)C(C(=O)OC)N2C=C(C)C=CC2=C1C(=O)OC (stereo unspecified),T/C,[2],102 % of control
same,T/C,[3],100 % of control
same,T/C,"dose: 200.0 mg/kg/injection, schedule: Q01DX009 (ip), vehicle: saline with Tween-80",98 % of control
CC1CCCC(C)(CO)O1 (stereo unspecified),T/C,"dose: 100.0 mg/kg/injection, schedule: Q04DX003 (ip), vehicle: saline",115 % of control
same,T/C,"dose: 200.0 mg/kg/injection, schedule: Q04DX003 (ip), vehicle: saline",115 % of control
same,T/C,"dose: 400.0 mg/kg/injection, schedule: Q04DX003 (ip), vehicle: saline",105 % of control
OCc1cc(Cl)ccc1O,T/C,"dose: 50.0 mg/kg/injection, schedule: Q01DX009 (ip), vehicle: Klucel (hydroxypropylcellulose) (HPC)",101 % of control
same,T/C,"dose: 100.0 mg/kg/injection, schedule: Q01DX009 (ip), vehicle: Klucel (hydroxypropylcellulose) (HPC)",103 % of control
same,T/C,[1],100 % of control
same,T/C,"dose: 132.0 mg/kg/injection, schedule: Q04DX003 (ip), vehicle: other",95 % of control
same,T/C,"dose: 200.0 mg/kg/injection, schedule: Q01DX009 (ip), vehicle: Klucel (hydroxypropylcellulose) (HPC)",110 % of control
same,T/C,"dose: 300.0 mg/kg/injection, schedule: Q04DX003 (ip), vehicle: other",108 % of control
same,T/C,"dose: 400.0 mg/kg/injection, schedule: Q04DX003 (ip), vehicle: other",109 % of control
COc1cccc(N2C(N)=NC(N)=NC2(C)C)c1,T/C,"dose: 9.37 mg/kg/injection, schedule: Q01DX009 (ip), vehicle: Klucel (hydroxypropylcellulose) (HPC)",108 % of control
same,T/C,"dose: 18.75 mg/kg/injection, schedule: Q01DX009 (ip), vehicle: Klucel (hydroxypropylcellulose) (HPC)",93 % of control
CC1=CC2C(O)(CC(CO)=CC3C4C(C)(C)C4(OC(=O)c4ccccc4)C(OC(=O)c4ccccc4)C(C)C32O)C1=O (stereo unspecified),T/C,"dose: 0.03 mg/kg/injection, schedule: Q01DX009 (ip), vehicle: Klucel (hydroxypropylcellulose) (HPC)",95 % of control
same,T/C,"dose: 0.03 mg/kg/injection, schedule: Q01DX009 (ip), vehicle: saline + alcohol",93 % of control
same,T/C,"dose: 0.06 mg/kg/injection, schedule: Q01DX009 (ip), vehicle: Klucel (hydroxypropylcellulose) (HPC)",99 % of control
same,T/C,"dose: 0.06 mg/kg/injection, schedule: Q01DX009 (ip), vehicle: saline + alcohol",94 % of control
same,T/C,"dose: 0.12 mg/kg/injection, schedule: Q01DX009 (ip), vehicle: Klucel (hydroxypropylcellulose) (HPC)",99 % of control
same,T/C,"dose: 0.12 mg/kg/injection, schedule: Q01DX009 (ip), vehicle: saline + alcohol",112 % of control
same,T/C,"dose: 0.25 mg/kg/injection, schedule: Q01DX009 (ip), vehicle: Klucel (hydroxypropylcellulose) (HPC)",94 % of control
same,T/C,"dose: 0.25 mg/kg/injection, schedule: Q01DX009 (ip), vehicle: saline + alcohol",119 % of control
same,T/C,"dose: 0.5 mg/kg/injection, schedule: Q01DX009 (ip), vehicle: Klucel (hydroxypropylcellulose) (HPC)",89 % of control
same,T/C,"dose: 0.5 mg/kg/injection, schedule: Q01DX009 (ip), vehicle: saline + alcohol",119 % of control
same,T/C,"dose: 1.0 mg/kg/injection, schedule: Q01DX009 (ip), vehicle: Klucel (hydroxypropylcellulose) (HPC)",110 % of control
same,T/C,"dose: 1.0 mg/kg/injection, schedule: Q01DX009 (ip), vehicle: saline + alcohol",92 % of control
same,T/C,"dose: 3.1 micrograms/kg/injection, schedule: Q01DX009 (ip), vehicle: gum acacia",116 % of control
same,T/C,"dose: 3.1 micrograms/kg/injection, schedule: Q01DX009 (ip), vehicle: saline + alcohol",172 % of control
same,T/C,"dose: 3.1 micrograms/kg/injection, schedule: Q01DX009 (ip), vehicle: saline with Tween-80",88 % of control and 118 % of control
same,T/C,"dose: 6.2 micrograms/kg/injection, schedule: Q01DX009 (ip), vehicle: gum acacia",110 % of control
same,T/C,"dose: 6.2 micrograms/kg/injection, schedule: Q01DX009 (ip), vehicle: saline + alcohol",118 % of control
same,T/C,"dose: 6.2 micrograms/kg/injection, schedule: Q01DX009 (ip), vehicle: saline with Tween-80",119 % of control
same,T/C,"dose: 12.5 micrograms/kg/injection, schedule: Q01DX009 (ip), vehicle: gum acacia",107 % of control
same,T/C,"dose: 12.5 micrograms/kg/injection, schedule: Q01DX009 (ip), vehicle: saline + alcohol",110 % of control
same,T/C,"dose: 12.5 micrograms/kg/injection, schedule: Q01DX009 (ip), vehicle: saline with Tween-80",98 % of control and 121 % of control
same,T/C,"dose: 25.0 micrograms/kg/injection, schedule: Q01DX009 (ip), vehicle: gum acacia",108 % of control
same,T/C,"dose: 25.0 micrograms/kg/injection, schedule: Q01DX009 (ip), vehicle: saline + alcohol",110 % of control
same,T/C,"dose: 25.0 micrograms/kg/injection, schedule: Q01DX009 (ip), vehicle: saline with Tween-80",93 % of control
same,T/C,"dose: 50.0 micrograms/kg/injection, schedule: Q01DX009 (ip), vehicle: gum acacia",110 % of control
same,T/C,"dose: 50.0 micrograms/kg/injection, schedule: Q01DX009 (ip), vehicle: saline + alcohol",116 % of control
same,T/C,"dose: 100.0 micrograms/kg/injection, schedule: Q01DX009 (ip), vehicle: gum acacia",105 % of control
same,T/C,"dose: 100.0 micrograms/kg/injection, schedule: Q01DX009 (ip), vehicle: saline + alcohol",110 % of control
same,T/C,"dose: 100.0 micrograms/kg/injection, schedule: Q01DX009 (ip), vehicle: saline with Tween-80",104 % of control
same,T/C,"dose: 200.0 micrograms/kg/injection, schedule: Q01DX009 (ip), vehicle: gum acacia",110 % of control
same,T/C,"dose: 200.0 micrograms/kg/injection, schedule: Q01DX009 (ip), vehicle: saline + alcohol",150 % of control
same,T/C,"dose: 200.0 micrograms/kg/injection, schedule: Q01DX009 (ip), vehicle: saline with Tween-80",107 % of control and 116 % of control
same,T/C,"dose: 400.0 micrograms/kg/injection, schedule: Q01DX009 (ip), vehicle: saline + alcohol",116 % of control
same,T/C,"dose: 800.0 micrograms/kg/injection, schedule: Q01DX009 (ip), vehicle: gum acacia",96 % of control
same,T/C,"dose: 800.0 micrograms/kg/injection, schedule: Q01DX009 (ip), vehicle: saline + alcohol",96 % of control
same,T/C,"dose: 800.0 micrograms/kg/injection, schedule: Q01DX009 (ip), vehicle: saline with Tween-80",98 % of control and 110 % of control
O=[N+]([O-])c1ccc(NCc2ccccc2)nc1,T/C,"dose: 25.0 mg/kg/injection, schedule: Q01DX009 (ip), vehicle: saline with Tween-80",107 % of control
same,T/C,[2],109 % of control
same,T/C,[3],114 % of control
